# Assay results as given in US12371428B2 (Exelixis, Inc., priority 2019, dated 2025).
# Columns and labels:
# [1] = target: Human AXL (residues 464-885) (Homo sapiens (Human), UniProt P30530); assay: Human AXL kinase assay, HTRF KinEase (Example A-2); format: biochemical; details: protocol of Example A-2 (other compounds)
# Experimental: Kinase activity and compound inhibition were also investigated using the HTRF® KinEase assay (Cisbio Cat #62TKOPEB) per manufacturer's instructions. In short, compounds were delivered in 300 nL volumes at 10 different concentrations in DMSO (3% final) to empty 384-well assay plates (Corning cat #3824). A mixture of enzyme, […] biotynlated peptide substrate, and buffer in 10 μL volume was added. The assay was started upon the addition of ATP (at Km). The 10 μL reaction was incubated at room temperature. The reaction was stopped upon the addition of detection buffer containing streptavidin-XL665 ([…]) and TK antibody-Eu3+(5 L).
# Kinase activity normalized to DMSO (100% activity) and reference compound at […] and (0% activity) was calculated using the fluorescence ratio […]. IC50 values were calculated by nonlinear regression analysis using a 4-parameter logistic curve fit in ActivityBase XE (IDBS).
# The mixture was added to the pre-plated compounds. […] The reaction was incubated at room temperature for 50 min and stopped upon the addition of SA-XL665 and TK-antibody both diluted in EDTA-containing kinase detection buffer (Cisbio). The kinase activity was calculated as stated above and the IC50 values were reported.
# [2] = target: AXL (phospho-AXL, Gas6-stimulated A-172 glioblastoma cells) (Homo sapiens (Human), UniProt P30530); assay: AXL autophosphorylation ELISA in A-172 cells (Example E); format: cell-based; details: cellular activity; AXL autophosphorylation ELISA in A-172 cells; read-out: Axl IC50
# Summary of the method: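 Phospho-AXL was measured by ELISA in lysates of Gas6-stimulated A-172 cells, starved 24 h in serum-free medium and exposed 1 h to an 8-point compound dilution at 0.3% DMSO.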
# [3] = target: Human Met (residues R974-S1390 with A1209G and V1290L) (Homo sapiens, UniProt P08581); assay: Human Met kinase assay, 33P-phosphoryl transfer radiometric (Example D-1, KinaseProfiler); format: biochemical; details: protocol of Example D-1 (compounds 21-27, 41-47, 99, 104); read-out: c-Met IC50
# Experimental: (§1) Kinase activity and compound inhibition were investigated using the ^33P-Phosphoryl transfer radiometric kinase assay, performed using the KinaseProfiler™ service of Eurofins Pharma Discovery Services UK Limited. Dose-response experiments were performed using nine compound concentrations in a 96-well microtiter plate. For each assay, all compounds were prepared to a 50× final assay concentration (50 μM) in 100% DMSO, then diluted in a half-log series, with the final top concentration at 1 μM. This working stock of the compound was added to the assay well as the first component in the reaction, followed by the remaining components as detailed in the following assay protocols below. The positive control wells (100% kinase activity) contain all components of the reaction including 2% DMSO (control for solvent effects), except the compound of interest. Blank wells contain all components of the reaction, with the reference inhibitor, staurosporine. This reference compound was used to abolish kinase activity and generated the 0% kinase activity base-line. IC50 values were calculated by nonlinear regression analysis using the sigmoidal dose-response (variable slope) curve fit on XLFit version 5.3 (ID Business Solutions).
# Example D-1: Human Met (residues R974-S1390 with A1209G and V1290L, 3.4 nM) was incubated with 8 mM MOPS pH 7.0, 0.2 mM EDTA, 250 µM […] (SEQ ID NO:3), 1 mM sodium orthovanadate, 5 mM […], 10 mM magnesium acetate, and 10 μM [γ-^33P-ATP]. The reaction was initiated by the addition of the Mg/ATP mix. After incubation for 40 minutes at room temperature, the reaction was stopped by the addition of phosphoric acid to a concentration of 0.5%. A reaction aliquot of 10 μL was then spotted onto a P30 filtermat and washed four times for 4 minutes in 0.425% phosphoric acid and once in methanol prior to drying and scintillation counting. Incorporated ^33P was measured using the Wallac Microbeta scintillation counter (Perkin Elmer).
# [4] = target: Human KDR (residues K790-V1356) (Homo sapiens (Human), UniProt P35968); assay: Human KDR kinase assay, 33P-phosphoryl transfer radiometric (Example B-1, KinaseProfiler); format: biochemical; details: protocol of Example B-1 (compounds 21-27, 41-47, 99, 104)
# Experimental: as §1
# Example B-1: Human KDR (residues K790-V1356, 55 nM) was incubated with 8 mM MOPS pH 7.0, 0.2 mM EDTA, 0.33 mg/mL myelin basic protein, 10 mM magnesium acetate, and 10 μM [γ-^33P-ATP]. The reaction was initiated by the addition of the Mg/ATP mix. After incubation for 40 minutes at room temperature, the reaction was stopped by the addition of phosphoric acid to a concentration of 0.5%. A reaction aliquot of 10 μL was then spotted onto a P30 filtermat and washed four times for 4 minutes in 0.425% phosphoric acid and once in methanol prior to drying and scintillation counting. Incorporated ^33P was measured using the Wallac Microbeta scintillation counter (Perkin Elmer).
# [5] = target: Human Axl (residues H473-A894 with Q764R) (Homo sapiens (Human), UniProt P30530, Q764R); assay: Human AXL kinase assay, 33P-phosphoryl transfer radiometric (Example A-1, KinaseProfiler); format: biochemical
# Sequence of Human Axl (residues H473-A894 with Q764R) (P30530 473-894 Q764R): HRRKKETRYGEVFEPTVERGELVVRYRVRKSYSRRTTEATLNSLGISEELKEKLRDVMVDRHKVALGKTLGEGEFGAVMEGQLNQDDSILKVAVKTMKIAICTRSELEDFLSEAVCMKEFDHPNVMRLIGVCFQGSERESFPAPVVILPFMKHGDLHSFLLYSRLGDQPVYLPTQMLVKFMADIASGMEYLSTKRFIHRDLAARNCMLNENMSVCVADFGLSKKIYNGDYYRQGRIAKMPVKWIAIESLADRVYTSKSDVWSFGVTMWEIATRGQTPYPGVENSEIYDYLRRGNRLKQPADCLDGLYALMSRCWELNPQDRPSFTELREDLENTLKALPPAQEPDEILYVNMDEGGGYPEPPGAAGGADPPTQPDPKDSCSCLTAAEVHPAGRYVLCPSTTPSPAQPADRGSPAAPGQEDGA
# Experimental: The reaction was initiated by the addition of the Mg/ATP mix. […] Incorporated ^33P was measured using the Wallac Microbeta scintillation counter (Perkin Elmer).
# Sequence of AXL (phospho-AXL, Gas6-stimulated A-172 glioblastoma cells) (P30530 26-894): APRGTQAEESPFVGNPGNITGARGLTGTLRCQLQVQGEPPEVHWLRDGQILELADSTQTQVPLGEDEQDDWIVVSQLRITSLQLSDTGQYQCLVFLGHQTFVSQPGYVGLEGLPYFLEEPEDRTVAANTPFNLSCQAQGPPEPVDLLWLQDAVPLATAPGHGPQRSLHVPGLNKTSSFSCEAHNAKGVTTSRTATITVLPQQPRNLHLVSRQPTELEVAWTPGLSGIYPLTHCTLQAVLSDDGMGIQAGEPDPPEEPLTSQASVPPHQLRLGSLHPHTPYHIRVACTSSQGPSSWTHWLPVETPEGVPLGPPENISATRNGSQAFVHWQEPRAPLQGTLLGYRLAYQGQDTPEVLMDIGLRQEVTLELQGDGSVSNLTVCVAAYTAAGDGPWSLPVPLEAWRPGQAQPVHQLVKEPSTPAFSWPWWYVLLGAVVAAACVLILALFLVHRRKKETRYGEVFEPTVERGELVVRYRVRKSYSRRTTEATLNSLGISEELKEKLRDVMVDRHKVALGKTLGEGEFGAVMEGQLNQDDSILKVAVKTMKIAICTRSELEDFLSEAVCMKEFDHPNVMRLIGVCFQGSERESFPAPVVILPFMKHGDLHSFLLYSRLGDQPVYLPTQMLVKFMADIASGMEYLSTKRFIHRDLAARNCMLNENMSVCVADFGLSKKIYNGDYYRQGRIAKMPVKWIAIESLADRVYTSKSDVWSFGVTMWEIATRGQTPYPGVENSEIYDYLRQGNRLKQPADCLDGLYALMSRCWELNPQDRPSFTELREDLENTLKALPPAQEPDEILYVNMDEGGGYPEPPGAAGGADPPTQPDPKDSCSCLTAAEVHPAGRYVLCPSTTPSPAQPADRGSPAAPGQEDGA
# Sequence of Human AXL (residues 464-885) (P30530 473-894): as the sequence (P30530 473-894 Q764R) above, with R292Q counted along it
# Sequence of Human Met (residues R974-S1390 with A1209G and V1290L) (P08581 25-1390 limits assumed, stated change not applied): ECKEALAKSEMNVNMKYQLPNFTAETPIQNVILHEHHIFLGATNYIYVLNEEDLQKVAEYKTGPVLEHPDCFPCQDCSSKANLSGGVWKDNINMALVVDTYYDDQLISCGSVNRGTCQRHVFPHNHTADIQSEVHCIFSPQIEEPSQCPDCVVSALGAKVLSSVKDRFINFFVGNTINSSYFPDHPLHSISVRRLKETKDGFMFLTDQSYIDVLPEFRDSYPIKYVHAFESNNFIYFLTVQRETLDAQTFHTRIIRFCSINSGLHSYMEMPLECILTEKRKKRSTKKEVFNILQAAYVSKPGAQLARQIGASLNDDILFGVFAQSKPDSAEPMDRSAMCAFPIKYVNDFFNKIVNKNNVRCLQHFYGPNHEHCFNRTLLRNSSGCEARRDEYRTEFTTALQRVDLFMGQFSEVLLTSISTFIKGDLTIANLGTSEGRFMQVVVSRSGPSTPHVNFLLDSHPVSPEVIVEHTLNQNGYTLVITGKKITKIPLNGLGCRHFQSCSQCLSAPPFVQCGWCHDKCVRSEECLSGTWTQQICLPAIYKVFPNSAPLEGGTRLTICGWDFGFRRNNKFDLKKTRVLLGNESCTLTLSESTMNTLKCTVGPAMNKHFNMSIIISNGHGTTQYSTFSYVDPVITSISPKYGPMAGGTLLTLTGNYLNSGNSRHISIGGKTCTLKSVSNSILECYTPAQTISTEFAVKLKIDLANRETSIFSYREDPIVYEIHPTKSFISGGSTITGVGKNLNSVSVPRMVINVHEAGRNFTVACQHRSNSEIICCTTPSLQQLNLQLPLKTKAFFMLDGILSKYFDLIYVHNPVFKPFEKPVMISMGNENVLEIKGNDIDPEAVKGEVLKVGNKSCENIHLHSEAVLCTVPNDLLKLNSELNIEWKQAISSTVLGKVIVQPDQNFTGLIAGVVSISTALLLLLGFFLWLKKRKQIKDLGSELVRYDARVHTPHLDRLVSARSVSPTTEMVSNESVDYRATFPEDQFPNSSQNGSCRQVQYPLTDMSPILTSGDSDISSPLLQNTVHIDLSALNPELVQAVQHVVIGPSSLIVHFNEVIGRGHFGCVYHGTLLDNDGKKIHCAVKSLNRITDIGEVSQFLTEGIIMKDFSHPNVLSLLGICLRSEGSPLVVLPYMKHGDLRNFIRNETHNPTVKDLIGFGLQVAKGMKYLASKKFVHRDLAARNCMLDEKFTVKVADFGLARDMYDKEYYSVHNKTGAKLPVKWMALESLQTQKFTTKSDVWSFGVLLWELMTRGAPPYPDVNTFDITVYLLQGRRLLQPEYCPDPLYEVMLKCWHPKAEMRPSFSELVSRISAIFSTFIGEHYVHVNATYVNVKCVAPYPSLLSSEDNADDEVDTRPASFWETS
# Sequence of Human KDR (residues K790-V1356) (P35968 790-1356): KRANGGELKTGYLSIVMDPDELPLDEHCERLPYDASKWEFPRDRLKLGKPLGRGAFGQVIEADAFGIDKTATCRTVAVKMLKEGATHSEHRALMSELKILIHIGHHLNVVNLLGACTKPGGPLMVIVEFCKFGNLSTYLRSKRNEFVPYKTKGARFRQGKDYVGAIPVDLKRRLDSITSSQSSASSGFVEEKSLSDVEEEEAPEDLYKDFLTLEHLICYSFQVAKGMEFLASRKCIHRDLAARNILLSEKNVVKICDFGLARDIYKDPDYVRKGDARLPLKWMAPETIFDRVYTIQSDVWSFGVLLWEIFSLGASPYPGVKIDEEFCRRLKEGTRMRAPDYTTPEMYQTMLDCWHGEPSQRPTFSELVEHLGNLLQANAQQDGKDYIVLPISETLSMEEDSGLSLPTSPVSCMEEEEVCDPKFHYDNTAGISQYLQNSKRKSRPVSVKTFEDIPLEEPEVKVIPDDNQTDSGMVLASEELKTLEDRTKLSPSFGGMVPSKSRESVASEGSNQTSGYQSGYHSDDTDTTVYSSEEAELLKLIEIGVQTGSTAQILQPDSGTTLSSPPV
IC50 [1] [nM],IC50 [2] [nM],IC50 [3] [nM],IC50 [4] [nM],IC50 [5] [nM],Compound
< 100,< 100,,,,"COCCOc1ccc2nccc(Oc3ccc(NC(=O)c4cnc(C)c(-c5ccc(F)cc5)c4O)cc3F)c2n1 [Compound 348, N-[3-fluoro-4-[[6-(2-methoxyethoxy)-1,5-naphthyridin-4-yl]oxy]phenyl]-5-(4-fluorophenyl)-4-hydroxy-6-methylpyridine-3-carboxamide]"
< 100,< 100,,,,"COc1cc2ncnc(Oc3ccc(NC(=O)c4c5n(cc(-c6ccc(F)cc6)c4=O)CCC5)cc3F)c2cc1OC [Compound 406, N-[4-(6,7-dimethoxyquinazolin-4-yl)oxy-3-fluorophenyl]-6-(4-fluorophenyl)-7-oxo-2,3-dihydro-1H-indolizine-8-carboxamide]"
< 100,< 100,,,,"COCCOc1ccc2nccc(Oc3ccc(NC(=O)c4c(C)nc(C)c(-c5ccc(F)cc5)c4O)cc3F)c2n1 [Compound 349, N-[3-fluoro-4-[[6-(2-methoxyethoxy)-1,5-naphthyridin-4-yl]oxy]phenyl]-5-(4-fluorophenyl)-4-hydroxy-2,6-dimethylpyridine-3-carboxamide]"

# More lines, now with the values behind:
Compound,IC50 [1] [nM],IC50 [2] [nM],IC50 [3] [nM],IC50 [4] [nM],IC50 [5] [nM]
"COc1cc2nccc(Oc3ccc(NC(=O)c4c(C)nc(C)c(-c5ccc(F)cc5)c4O)cc3F)c2nc1OC [Compound 154, N-[4-[(6,7-Dimethoxy-1,5-naphthyridin-4-yl)oxy]-3-fluorophenyl]-5-(4-fluorophenyl)-4-hydroxy-2,6-dimethylpyridine-3-carboxamide]",< 100,< 100,,,
"COc1cc2nccc(Oc3ccc(NC(=O)c4cn(CC(F)(F)F)c(C)c(-c5ccc(F)cc5)c4=O)cc3)c2cc1OC [Compound 260, N-[4-(6,7-Dimethoxyquinolin-4-yl)oxyphenyl]-5-(4-fluorophenyl)-6-methyl-4-oxo-1-(2,2,2-trifluoroethyl)pyridine-3-carboxamide]",< 100,< 100,,,
"COc1cc2nccc(Oc3ccc(NC(=O)c4c[nH]c(=S)n(-c5ccc(F)cc5)c4=O)cc3F)c2nc1OC [Compound 104, N-[4-[(6,7-Dimethoxy-1,5-naphthyridin-4-yl)oxy]-3-fluorophenyl]-3-(4-fluorophenyl)-4-oxo-2-sulfanylidene-1H-pyrimidine-5-carboxamide]",,< 100,> 300,> 300,> 300
"COc1cc2nccc(Oc3ccc(NC(=O)c4ccc(C)n(-c5ccc(F)cc5)c4=O)cc3F)c2nc1OC [Compound 254, N-[4-[(6,7-Dimethoxy-1,5-naphthyridin-4-yl)oxy]-3-fluorophenyl]-1-(4-fluorophenyl)-6-methyl-2-oxopyridine-3-carboxamide]",< 100,< 100,,,
